Assay results from PMC10683025, “Discovery of a Hydroxylamine-Based Brain-Penetrant EGFR Inhibitor for Metastatic Non-Small-Cell Lung Cancer” (Journal of Medicinal Chemistry, 2023).
In brackets after ≈: the same amount, converted by molar mass. Where two headings read alike, the source gives them in different places.

How the values were obtained:
MDCKII-MDR1 cells = assay: MDCKII-MDR1 permeability; format: in vitro ADME, canine; conditions: MDCKII-MDR1
Method: (§2) A 96-well HTS Transwell plate (Corning) was used for Caco-2 and MDCKII-MDR1 cell seeding. […] Plates were incubated at 37 °C for 2 h, and samples (50 μL) were taken at the beginning and end of the incubation in both the donor and acceptor wells with the assay run in duplicate (n = 2). Samples were analyzed by LC-MS/MS.
(§3) The efflux ratio was determined by using the following equation: [drawing 4] where Papp (B–A) indicates the apparent permeability in the basolateral to apical direction and Papp (A–B) indicates the apparent permeability in the apical to basolateral direction.

MDR1 = assay: MDCKII-MDR1 permeability; format: in vitro ADME, canine; conditions: dog, MDCK-MDR1
Method: as §2, §3

MDCKII-MDR1 permeability = format: in vitro ADME, canine; conditions: dog, MDCK-MDR1, MDCKII-MDR1
Method: as §2, §3

EGFRL858R [1] = target: T1, EGFRL858R (Homo sapiens, UniProt P00533, L858R); assay: KINOMEScan KdELECT Kd determination; format: binding; parameters: purchased Eurofins DiscoverX (contract assay)
T1 sequence (P00533 25-1210 L858R): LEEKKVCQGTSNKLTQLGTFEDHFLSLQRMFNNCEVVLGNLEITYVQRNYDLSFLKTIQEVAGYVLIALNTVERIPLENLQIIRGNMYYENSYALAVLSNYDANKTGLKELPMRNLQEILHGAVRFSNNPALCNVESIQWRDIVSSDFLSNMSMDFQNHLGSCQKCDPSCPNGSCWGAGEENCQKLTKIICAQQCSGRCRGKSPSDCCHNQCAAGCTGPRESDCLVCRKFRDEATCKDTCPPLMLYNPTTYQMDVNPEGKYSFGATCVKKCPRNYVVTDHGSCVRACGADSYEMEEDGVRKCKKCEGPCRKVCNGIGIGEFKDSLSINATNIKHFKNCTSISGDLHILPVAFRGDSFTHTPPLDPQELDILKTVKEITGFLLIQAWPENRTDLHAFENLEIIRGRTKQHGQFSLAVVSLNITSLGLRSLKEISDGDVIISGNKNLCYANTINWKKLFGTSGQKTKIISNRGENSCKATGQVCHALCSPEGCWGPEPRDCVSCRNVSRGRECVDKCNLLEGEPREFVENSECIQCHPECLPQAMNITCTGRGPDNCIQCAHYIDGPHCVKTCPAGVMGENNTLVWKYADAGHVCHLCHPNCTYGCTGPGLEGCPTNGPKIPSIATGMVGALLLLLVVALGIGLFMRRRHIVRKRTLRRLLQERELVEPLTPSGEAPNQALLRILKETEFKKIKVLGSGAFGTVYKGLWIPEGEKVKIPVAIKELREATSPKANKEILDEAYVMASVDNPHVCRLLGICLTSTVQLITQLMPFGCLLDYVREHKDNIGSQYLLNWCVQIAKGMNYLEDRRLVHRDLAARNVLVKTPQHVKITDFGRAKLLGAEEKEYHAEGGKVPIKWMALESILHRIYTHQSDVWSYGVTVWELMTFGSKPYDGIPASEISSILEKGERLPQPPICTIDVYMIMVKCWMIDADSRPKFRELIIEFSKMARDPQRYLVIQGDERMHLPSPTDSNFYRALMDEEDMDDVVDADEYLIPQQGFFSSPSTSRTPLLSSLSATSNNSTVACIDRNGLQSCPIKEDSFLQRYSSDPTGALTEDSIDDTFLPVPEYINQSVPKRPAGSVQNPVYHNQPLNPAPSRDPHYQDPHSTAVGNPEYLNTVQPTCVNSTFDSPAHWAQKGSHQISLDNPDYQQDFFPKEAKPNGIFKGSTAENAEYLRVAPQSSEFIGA
Method: (§4) In vitro kinase activity (inhibitor binding constants (Kd) and biochemical inhibition (IC50’s)) were assessed by Eurofins DiscoverX (Kd determinations) and Eurofins Cerep (biochemical IC50 determinations).

[2] = Plasma protein binding by equilibrium dialysis; format: in vitro ADME; conditions: human; for fraction unbound at 6 h, 5 μM: read-out: fu,plasma% / %Unbound (converted)
Method: Plasma protein binding and brain tissue binding were determined by Pharmaron, Inc. using the equilibrium dialysis method. […] Following incubation, the samples were analyzed by LC-MS/MS and the concentrations of the compounds were determined in the buffer and plasma solution chambers.

EGFRwt [3] = target: T2, EGFRwt (Homo sapiens, UniProt P00533); assay: KINOMEScan KdELECT Kd determination; format: binding; conditions: wt; read-out: EGFR Kd
T2 construct: purchased Eurofins DiscoverX (contract assay)
T2 sequence (P00533 25-1210): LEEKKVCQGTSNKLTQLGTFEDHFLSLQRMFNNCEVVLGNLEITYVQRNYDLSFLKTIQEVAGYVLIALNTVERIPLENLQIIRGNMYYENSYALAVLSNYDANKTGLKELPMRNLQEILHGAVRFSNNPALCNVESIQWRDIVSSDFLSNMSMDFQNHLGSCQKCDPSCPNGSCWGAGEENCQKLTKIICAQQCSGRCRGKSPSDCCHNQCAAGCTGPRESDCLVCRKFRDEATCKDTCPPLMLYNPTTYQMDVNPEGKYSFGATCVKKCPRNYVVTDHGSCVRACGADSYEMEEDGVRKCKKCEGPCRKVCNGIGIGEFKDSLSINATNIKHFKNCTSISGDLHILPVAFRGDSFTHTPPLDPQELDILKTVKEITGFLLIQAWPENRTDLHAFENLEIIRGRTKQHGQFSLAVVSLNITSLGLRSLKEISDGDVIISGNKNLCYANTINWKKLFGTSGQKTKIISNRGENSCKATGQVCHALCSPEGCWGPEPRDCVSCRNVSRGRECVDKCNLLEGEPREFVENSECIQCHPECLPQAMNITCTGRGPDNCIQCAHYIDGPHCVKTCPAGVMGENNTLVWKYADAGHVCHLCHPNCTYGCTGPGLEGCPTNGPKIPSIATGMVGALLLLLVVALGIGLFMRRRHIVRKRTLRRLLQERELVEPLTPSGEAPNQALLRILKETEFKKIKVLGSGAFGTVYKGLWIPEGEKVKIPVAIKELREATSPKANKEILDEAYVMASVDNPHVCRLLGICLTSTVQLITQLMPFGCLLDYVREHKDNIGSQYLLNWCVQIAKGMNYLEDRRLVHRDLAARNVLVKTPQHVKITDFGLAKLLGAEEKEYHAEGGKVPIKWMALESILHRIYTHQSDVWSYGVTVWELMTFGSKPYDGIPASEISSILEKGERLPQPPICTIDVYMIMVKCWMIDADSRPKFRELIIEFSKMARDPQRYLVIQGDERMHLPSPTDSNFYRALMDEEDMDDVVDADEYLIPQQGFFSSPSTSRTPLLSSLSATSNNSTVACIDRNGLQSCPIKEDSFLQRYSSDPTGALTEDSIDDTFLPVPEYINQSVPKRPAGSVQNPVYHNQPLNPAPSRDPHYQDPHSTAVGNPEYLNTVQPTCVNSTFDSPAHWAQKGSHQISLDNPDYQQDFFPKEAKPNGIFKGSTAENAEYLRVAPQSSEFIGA
Method: as §4

Plasma stability [4] = format: in vitro ADME, Sprague-Dawley rat; conditions: rat plasma
Method: (§1) Assessment of compounds to determine stability in incubations containing plasma of human (Pharmaron) and Sprague-Dawley rat (IPHASE) was performed by Pharmaron, Inc. using the compound […] approach. Compounds were assessed in duplicate (n = 2) and incubated in plasma at 5 μM and samples (50 μL) were taken at 0, 15, 30, 60, and 120 min time points for analysis by LC-MS/MS. Peak area ratios were determined from the extracted ion chromatogram and the percent compound remaining at each time point was calculated by the following equation: [drawing 2] where peak area ratiot min is the peak area ratio of control and test compound at t min and peak area ratio0 min is the peak area ratio of control and test compound at zero time point.

[5] = Lipophilicity, shake-flask; format: physicochemical; conditions: 1-octanol/PBS; 1-octanol and PBS (pH 7.4); read-out: logD7.4
Method: Compound lipophilicity was determined by Pharmaron, Inc. using the shake-flask method with 1-octanol and PBS (pH 7.4). Each compound was assessed in duplicate (n = 2) at 1 μM in a 96-well plate shaken at 25 °C and 2000 rpm for 2 h. Samples were analyzed by liquid chromatography and tandem mass spectrometry (LC-MS/MS).

Caco-2 cells = assay: Caco-2 permeability; format: in vitro ADME; conditions: Caco-2
Method: as §2, §3

Caco-2 permeability = format: in vitro ADME; conditions: human; for recovery at 2 h, 5 μM: Caco-2, Caco-2
Method: as §2, §3

[6] = test system: HCC827 (EGFR mutation = exon19del); assay: CellTiter-Glo cell viability assay; format: cell-based, human; conditions: Homo sapiens, HCC827; 72 h, unadjusted for FBS
Method: (§5) The NCI-H3255 cell line was obtained from CoBioer. […] NCI-H3255 cells were cultured in BEGM (Lonza) with 10% FBS. […] All cells were cultured in a humidified incubator with 5% CO2 at 37 °C.
(§6) Viability assays using A431, HCC827, NCI-H1975, NCI-H3255, Ba/F3 EGFR-del E746_A750/C797S, Ba/F3 EGFR-L858R/C797S, AU565, SK-BR-3, and ZR-75-30 cells were performed at Crown BioScience.

[7] = test system: NCI-H3255 (EGFR mutation = L858R); assay: CellTiter-Glo cell viability assay; format: cell-based, human; conditions: Homo sapiens, NCI-H3255; 72 h, unadjusted for FBS
Method: as §5, §6

Solubility assay = format: physicochemical; conditions: buffer, pH 7.4, aqueous buffer; read-out: Aq. Sol.
Method: Solubility was determined by Pharmaron, Inc. and each compound was assessed in duplicate (n = 2) by adding 15 μL of compound stock solution (10 mM in DMSO) into a 96-well plate along with 485 μL of buffer followed by shaking at 25 °C, 1100 rpm for 2 h. Wells were filtered, and samples (5 μL) were taken followed by dilution with an equal volume of DMSO (5 μL) and 490 μL of aqueous solution. Samples were analyzed by LC-MS/MS.

[8] = Metabolic stability in liver microsomes; format: in vitro ADME, human; conditions: for Remaining Percentage: human LM
EGFRL858R [9] = target: T1, EGFRL858R; assay: KinaseProfiler enzymatic radiometric assay; format: biochemical; parameters: purchased Eurofins Cerep (KinaseProfiler, contract assay); conditions: ATP 10 μM, read-out: EGFR IC50
Method: as §4

EGFRwt [10] = target: T2, EGFRwt; assay: KinaseProfiler enzymatic radiometric assay; format: biochemical; conditions: wt, ATP 10 μM; read-out: EGFR IC50
Method: as §4

[11] = Metabolic stability in liver microsomes; format: in vitro ADME, Sprague-Dawley rat; conditions: for Remaining Percentage: rat LM
Method: Microsome stability was assessed in duplicate (n = 2) in the presence and absence of nicotinamide adenine dinucleotide phosphate (NADPH) with liver microsomes (0.5 mg/mL) from human (BD Gentest) and Sprague-Dawley rats (BD Gentest). Compounds were incubated in liver microsomes at 1 μM and samples (30 μL) were taken at 0.5, 15, 30, 45, and 60 min time points for analysis by LC-MS/MS. Hepatocyte stability was assessed in duplicate (n = 2) at a working cell density of 0.5 × 10^6 cells/mL with hepatocytes from human (BiolVT), Sprague-Dawley rat (BiolVT), cynomolgus monkey (RILD) or beagle dog (BiolVT). […] The in vitro half-life and intrinsic clearances were determined as previously described.[76]
In vitro half-life (in vitro t1/2) was determined from the slope value in [drawing 1] where k was determined by linear regression of the natural logarithm of the remaining percentage of the parent drug vs the incubation time curve.

EGFR del E746_A750 = target: T3, EGFR del E746_A750 (Homo sapiens, UniProt P00533, DEL746-750); assay: KINOMEScan KdELECT Kd determination; format: binding
T3 construct: purchased Eurofins DiscoverX (contract assay)
T3 sequence (P00533 with tags, fused parts or gaps DEL746-750): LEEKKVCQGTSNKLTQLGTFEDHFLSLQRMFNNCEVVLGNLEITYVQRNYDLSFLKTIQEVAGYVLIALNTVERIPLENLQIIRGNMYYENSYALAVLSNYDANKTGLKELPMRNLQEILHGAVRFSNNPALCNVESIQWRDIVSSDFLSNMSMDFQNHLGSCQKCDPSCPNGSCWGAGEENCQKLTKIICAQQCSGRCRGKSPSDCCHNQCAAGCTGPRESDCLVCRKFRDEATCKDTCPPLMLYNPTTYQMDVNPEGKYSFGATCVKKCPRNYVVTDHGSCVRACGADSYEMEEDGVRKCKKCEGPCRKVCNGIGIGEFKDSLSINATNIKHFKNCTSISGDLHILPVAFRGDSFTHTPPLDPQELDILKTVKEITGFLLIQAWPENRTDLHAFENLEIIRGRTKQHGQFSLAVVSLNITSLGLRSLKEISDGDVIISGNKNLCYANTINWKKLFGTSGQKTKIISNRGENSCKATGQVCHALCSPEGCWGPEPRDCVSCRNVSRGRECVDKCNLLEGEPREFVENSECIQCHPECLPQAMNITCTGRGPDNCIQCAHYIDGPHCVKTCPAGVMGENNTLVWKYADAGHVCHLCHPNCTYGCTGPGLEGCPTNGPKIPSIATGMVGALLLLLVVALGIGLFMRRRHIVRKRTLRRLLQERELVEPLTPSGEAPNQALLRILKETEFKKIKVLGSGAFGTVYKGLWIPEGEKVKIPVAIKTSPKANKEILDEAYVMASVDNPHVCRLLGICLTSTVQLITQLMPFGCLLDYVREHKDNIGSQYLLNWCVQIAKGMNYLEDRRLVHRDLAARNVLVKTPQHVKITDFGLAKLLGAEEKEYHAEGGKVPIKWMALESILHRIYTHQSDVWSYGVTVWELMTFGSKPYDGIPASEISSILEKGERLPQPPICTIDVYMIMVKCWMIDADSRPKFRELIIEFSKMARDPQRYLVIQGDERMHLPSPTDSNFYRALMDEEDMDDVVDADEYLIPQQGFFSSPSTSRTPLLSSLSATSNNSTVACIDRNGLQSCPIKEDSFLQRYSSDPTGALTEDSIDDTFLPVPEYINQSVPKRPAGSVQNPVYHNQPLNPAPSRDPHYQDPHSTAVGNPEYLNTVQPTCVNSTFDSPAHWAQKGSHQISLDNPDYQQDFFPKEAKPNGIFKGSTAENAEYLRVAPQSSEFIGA
Method: as §4

Plasma stability [12] = format: in vitro ADME, human; conditions: human plasma
Method: as §1

In the case of COc1cc2ncnc(Nc3ccc(F)c(Cl)c3)c2cc1OCCON1CCOCC1 [Compound 6, N-(3-Chloro-4-fluorophenyl)-7-methoxy-6-(2-(morpholinooxy)ethoxy)quinazolin-4-amine], the “increase in permeability compared to 1” value (MDCKII-MDR1 cells) is reported as “roughly 4 fold”, the efflux ratio at 2 h, 1 µM (MDR1) is reported as 2 and the efflux ratio at 2 h, 1 μM (MDR1) is reported as 1.99. It also gave a Papp A→B at 2 h, 1 µM (MDR1; 1 μM, 2 h) of 4.2 ×10⁻⁶ cm/s, a Papp A→B at 2 h, 1 μM (MDR1; 1 μM, 2 h) of 4.19 ×10⁻⁶ cm/s and a Papp B→A at 2 h, 1 µM (MDR1; 1 μM, 2 h) of 8.3 ×10⁻⁶ cm/s. It also gave a Papp B→A at 2 h, 1 μM (MDR1; 1 μM, 2 h) of 8.26 ×10⁻⁶ cm/s, a recovery at 2 h, 1 μM (MDCKII-MDR1 permeability; read-out: Recovery% (AP-BL)) of 51.6% and a recovery at 2 h, 1 μM (MDCKII-MDR1 permeability; read-out: Recovery% (BL-AP)) of 66.4%. The Kd (EGFRL858R [1]; L858R) was 0.8 nM, the “binding and biochemical inhibition of activating mutant bearing EGFR” value (EGFRL858R [1]; in words, Tables S1 and S3) was “single-digit nanomolar” and the recovery at 6 h, 5 μM ([2]; human plasma) was 101%. For the same molecule, the remaining at 6 h, 5 μM ([2]; human plasma) was 99.5%, the fraction unbound at 6 h, 5 μM ([2]; human plasma) was 0.0512 and the fraction unbound at 6 h, 5 μM ([2]; plasma, 5 μM) was 0.0512. For the same molecule, the Kd (EGFRwt [3]) was 0.6 nM, the “Remaining Percentages” value (Plasma stability [4]; 15 min) was 100.23% and the “Remaining Percentages” value (Plasma stability [4]; 30 min) was 99.35%. The “Remaining Percentages” value (Plasma stability [4]; 60 min) was 99.28%, the “Remaining Percentages” value (Plasma stability [4]; 120 min) was 104.21% and the t1/2 (Plasma stability [4]; ∞ = no degradation) was “∞”. The logD at 2 h, 1 µM [5] was 3.9, the “enhancement in permeability compared with 1” value (Caco-2 cells) was 14 fold and the efflux ratio at 2 h, 5 µM (Caco-2 permeability; Caco-2) was 1.9. It also gave an efflux ratio at 2 h, 5 μM (Caco-2 permeability; Caco-2) of 1.91, a recovery at 2 h, 5 μM (Caco-2 permeability; read-out: Recovery% (AP-BL)) of 53.8% and a recovery at 2 h, 5 μM (Caco-2 permeability; read-out: Recovery% (BL-AP)) of 60.3%. For the same molecule, the Papp A→B at 2 h, 5 µM (Caco-2 permeability; Caco-2, 5 μM, 2 h) was 5.6 ×10⁻⁶ cm/s, the Papp A→B at 2 h, 5 μM (Caco-2 permeability; Caco-2, 5 μM, 2 h) was 5.59 ×10⁻⁶ cm/s and the Papp B→A at 2 h, 5 µM (Caco-2 permeability; Caco-2, 5 μM, 2 h) was 10.7 ×10⁻⁶ cm/s. For the same molecule, the Papp B→A at 2 h, 5 μM (Caco-2 permeability; Caco-2, 5 μM, 2 h) was 10.7 ×10⁻⁶ cm/s, the IC50 [6] was 4.2 nM and the IC50 [7] was 88 nM. For the same molecule, the solubility kinetic at 2 h (Solubility assay) was 1 µM (≈ 0.449 µg/mL), the “Remaining Percentage” value ([8]; +Cofactors, 15 min) was 49.30% and the “Remaining Percentage” value ([8]; +Cofactors, 30 min) was 28.74%. The “Remaining Percentage” value ([8]; +Cofactors, 45 min) was 20.85%, the “Remaining Percentage” value ([8]; +Cofactors, 60 min) was 14.00% and the “Remaining Percentage” value ([8]; -Cofactors, 60 min) was 89.19%. The half-life at 1 h, 1 µM ([8]; human, liver microsomes, read-out: LM t1/2) was 21.6 min, the microsomal CLint at 1 h, 1 µM ([8]; human, liver microsomes, read-out: LMClint) was 64 µL/min/mg and the IC50 (EGFRL858R [9]) was < 1 nM. For the same molecule, the IC50 (EGFRwt [10]) was 5 nM, the half-life at 1 h, 1 µM ([11]; Sprague-Dawley, rat, liver microsomes, read-out: LM t1/2) was 19.5 min and the microsomal CLint at 1 h, 1 µM ([11]; Sprague-Dawley, rat, liver microsomes, read-out: LMClint) was 71 µL/min/mg. The “Remaining Percentage” value ([11]; +Cofactors, 15 min) was 50.62%, the “Remaining Percentage” value ([11]; +Cofactors, 30 min) was 25.81% and the “Remaining Percentage” value ([11]; +Cofactors, 45 min) was 17.98%. The “Remaining Percentage” value ([11]; +Cofactors, 60 min) was 11.88%, the “Remaining Percentage” value ([11]; -Cofactors, 60 min) was 109.68% and the Kd (EGFR del E746_A750) was 0.3 nM. For the same molecule, the “Remaining Percentages” value (Plasma stability [12]; 15 min) was 98.26%, the “Remaining Percentages” value (Plasma stability [12]; 30 min) was 102.87% and the “Remaining Percentages” value (Plasma stability [12]; 60 min) was 101.74%. The “Remaining Percentages” value (Plasma stability [12]; 120 min) was 97.90% and the t1/2 (Plasma stability [12]; ∞ = no degradation) was “∞”.
